Where two headings read alike, the source gives them in different places.

For series [1] the following is noted: cited from earlier work.
In series [2] the test system is Staphylococcus epidermidis biofilm. The experiment in a line: Removal of biofilm from titanium disks, safranin staining. The class given is cell-based. The conditions noted are these: two minutes exposure. The text has this: Chemically pure (cp) titanium disks with a diameter of 6.2 mm and a height of 2 mm were used. […] After production, the disks were washed with NaOH at 40% v/v and HNO3 at 50% v/vin an ultrasonic bath to remove contaminants, then were washed with deionised water to reach a neutral pH and stored at room temperature in 70% v/v ethanol. Thereafter, the coins were placed in Eppendorf tube and steam autoclaved for sterilization.
Four chemical decontamination agents were selected for the in vitro testing: sterile saline H2O (VWR, Oslo, Norway), Chlorhexidine, 3% v/v H2O2(VWR, Oslo, Norway), a mixture of 3% v/v H2O2 and 2 g/L TiO2 (2 g nano-particles: P25 Aeroxide, Degussa Evonik, Evonik Industries AG, Essen, Germany).
15 sterile titanium disks per groups were inoculated. […] The amount of biofilm present on the surface of the titanium samples was assessed by using the safranin staining method: 10 min exposure to a 0.1% solution of safranin, then rinsed with distilled water, air dried, and exposed to a solution of 30% acetic acid to release the colored biomass from the titanium surfaces. The intensity of the staining was analyzed using a Synergy HT Multi-Detection Microplate Reader (Biotek, VT, USA) with a wavelength of 530 nm.

Series [3] can be described thus: pH of the suspension containing MB. The class given is physicochemical.
The text on series [4]:
Methylene blue (MB) is a heterocyclic aromatic chemical compound with molecular formula: C16H18N3SCl (SigmaAldrich, Oslo, Norway). It has many uses in a range of different fields, such as biology and chemistry. […] A degradation of MB therefore can be used as a model for the in vivo degradation of organic material, such as bacteria, or dead, damaged, and/or infected tissue. At room temperature, it appears as a solid, odourless, dark green powder, that yields a blue solution when dissolved in water. When degraded in solution, methylene blue becomes colourless.
When methylene blue is analysed by UV-vis spectrophotometry (Lambda 25, Perkin Elmer, USA), it absorbs light at […]. This machine was used to quantify the degradation of MB.
The aim was to measure if methylene blue could be degraded by H2O2(PERDROGEN® 30% H2O2 (v/v), Sigma Aldrich AS, Oslo, Norway) at 5% only, without ACP in a composite hydrogel formulation comprising poloxamers (Sigma Aldrich AS, Oslo, Norway) at a concentration of 5% w/v. Then, an increasing concentration of amorphous calcium phosphates ACP (by mixing two precursor components. Component A contained MB in a mixture of mono- and dibasic ammonium phosphate at pH 5.5.) was added to the solution until a maximum concentration of 8 g/L.
The measurements were taken every 3 minutes for one hour. The pH of the suspension containing MB was also registered. […]

With `OO` [H2O2, Hydrogen peroxide], the “effect on wound healing” value is given as “may induce healing” in series [1] (0.03% v/v solution, only if not applied repeatedly) and “impede healing” in series [1] (0.5% v/v solution). Also, in series [2], the “biofilm removal with higher concentration” value is recorded as “increased the biofilm removal”. Besides, the “pH of the suspension” value in series [3] (ACP suspension with MB, with H2O2 at 15% v/v) amounted to 3.3; in series [3] (H2O2 suspension with MB, without ACP), 3.7. In addition, the MB degradation entry in series [4] (adding 5% v/v H2O2 to the ACP suspension) is “increased the MB degradation”; in series [4] (increasing concentration of H2O2 in the ACP suspension) it was “increased the MB degradation in a linear way”.

The record behind these values is patent US12685749B2, “Multi-functional cleaning and/or debridement composition” (CORTICALIS AS, priority 2021, dated 2026).
